As usually defined, the melting point is the temperature, or range, at which the solid turns liquid.

This is an account of results in patent publication US7517893B2, “Bichalcophenes and their prodrugs as antiprotozoal agents” (The University of North Carolina at Chapel Hill, priority 2005, dated 2009).

Each structure is given as a SMILES string. “And” between values parts separate entries of the source, which are not always exact repeats. Equal entries are not always repeated. Structures can show the parent of a compound that is named as a salt. Where two headings read alike, the source gives them in different places.

For data set [1], the system named is STIB 900 strain of Trypanosoma brucei rhodesiense. Kind of data set: In vivo activity against T. b. r. STIB 900 in a mouse model. The conditions noted are these: for Survival: average days of survival, mice, untreated controls die between day 7 and 8; for Survival / Cures: days 3-6 post-infection; for Cures: number of mice that survive and are parasite free for 60 days, groups of four mice; for in vivo activity against T. b. r. (in words) / cure rate compared with pentamidine and furamidine (in words): murine model; for cure rate compared with pentamidine and furamidine (in words): T. b. r. STIB 900. As for the experimental part: The activities of compounds 6, 8, 14, 16 and 17, against the STIB 900 strain of Trypanosoma brucei rhodesiense (T. b. r.) in a mouse model are shown in Table 2. These values are compared to those of pentamidine and furamidine. Groups of four mice were infected intraperitoneally with […] bloodstream forms of T. b. r. STIB 900 which originates from a patient in Tanzania. On days 3, 4, 5, and 6 post-infection the experimental groups were treated with the drugs either by the intraperitoneal or for prodrugs by the oral route. Usually the highest tolerated dose was used which was determined in a pretoxicological experiment. Parasitemia of the mice was checked daily up to day 14 post-infection and thereafter 2 times per week up to day 60. One group of mice was not treated and acted as control. For relapsing mice, the day of death was recorded and the survival time determined.

Data set [2] concerns Trypanosoma brucei rhodesiense, Plasmodium falciparum, Leishmania donovani. Nature of the data set: In vitro antiprotozoal activities, overall statement on prodrugs. The data set is classed as cell-based. The conditions noted are these: absence of the enzymes needed for bioconversion to the active diamidines. As for the experimental part: In vitro antiprotozoal activities were measured following established protocols. See Ismail, M. A., et al., J. Med. Chem., 46, 4761-4769 (2003); Stephens, C. E., et al., Bioorg. Med. Chem. Lett., 13, 2065-2069 (2003) (in vitro assay against Leishmania donovani). The activities of compounds 8, 14, 16, 17, 19, 22, 26a, 26b, 29a, 29b, and 33, 39, and 45 against Trypanosoma brucei riodesiense (T. b. r.), Plasmodium falciparum (P. f.), Leishmania donovani (L. d.), and L-6 rat mycoblast cells (as an assay for cell toxicity) are shown in Table 1. These values are compared to those of pentamidine and furamidine.

The subject of the next data set is Plasmodium falciparum. Nature of the data set: In vitro antiprotozoal activity against P. f. The data set is classed as cell-based. How it is done: (§1) In vitro antiprotozoal activities were measured following established protocols. […] E., et al., Bioorg.
For a further data set, the system named is polyA.polyT. Nature of the data set: DNA binding study: increase in thermal melting (ΔTm) of polyA.polyT. The conditions noted are these: increase in thermal melting of polyA.polyT in the presence of compound. As for the experimental part: DNA binding studies with polyA.polyT were carried out using established protocols. See Wilson, W. D., et al., Biochemistry, 32, 4098-4104 (1993).

In the next data set the test system is L-6 rat mycoblast cells. Nature of the data set: Cell toxicity assay in L-6 rat mycoblast cells. The data set is classed as cell-based. The conditions noted are these: assay for cell toxicity, read-out: L6 Rat Mycoblast Cells IC50. How it is done: as §1
In data set [3] the test system is Trypanosoma brucei rhodesiense. Nature of the data set: In vitro antiprotozoal activity against T. b. r. The data set is classed as cell-based. How it is done: as §1
For the next data set, the system named is Leishmania donovani. Nature of the data set: In vitro antiprotozoal activity against L. d. The data set is classed as cell-based. The conditions noted are these: read-out: L.d. C50. How it is done: as §1
[4] abbreviates: Trypanosoma brucei, RHODESIENSE

`N=C(N)c1ccc(-c2ccc(-c3ccc(-c4ccc(C(=N)N)cn4)o3)o2)nc1` (as salt: salt) [Compound 22, 5,5′-Bis-(5-amidino-2-pyridyl)-2,2′-bifuran] had a melting point greater than 300 °C.
In the case of `N=C(NO)c1ccc(-c2ccc(-c3ccc(C(=N)NO)o3)o2)cc1` [Compound 6, N-Hydroxy-5′-[4-(N-hydroxyamidino)-phenyl]-2,2′-bifuran-5-carboxamidine], in data set [1] (po, 75 mg/kg), the Survival is 20 days and the Cures is given as 0/4. Also, in data set [2], the “in vitro activity (in words)” value is “poor in vitro activity”.
Turning to `N=C(N)c1ccc(-c2ccc(-c3ccc(C(=N)N)o3)o2)cc1` [Compound 8, 5′-(4-Amidinophenyl)-2,2′-bifuran-5-carboxamidine], in data set [1] (ip, 20 mg/kg), the Survival is given as greater than 45.5 days and the Cures is 2/4. Besides, in data set [1], the “in vivo activity against T. b. r. (in words)” value was “good in vivo activity”; the “cure rate compared with pentamidine and furamidine (in words)” value was “better cure rates than pentamidine and furamidine”. The molecule also gave an IC50 with Plasmodium falciparum (Plasmodium falciparum) of 41.5 nM. The Δ Tm in the data set on polyA.polyT was determined as 10.8 °C. In addition, in the data set with L-6 rat mycoblast cells, the IC50 worked out at 37800 nM.
As for `N=C(NO)c1ccc(-c2ccc(-c3ccc(C(=N)NO)o3)o2)nc1` [Compound 13, N-Hydroxy-6-[5′-(N-hydroxyamidino)-2,2′-bifuran-5-yl]-nicotinamidine], the melting point fell in the range of 248 to 250 °C.
In data set [1] (ip, 10 mg/kg), `CC(=O)O.N=C(N)c1ccc(-c2ccc(-c3ccc(C(=N)N)o3)o2)nc1` [Compound 14, 6-(5′-Amidino-2,2′-bifuran-5-yl)-nicotinamidine acetate salt] had a Survival greater than 51.25 days. Also, in data set [1], the “in vivo activity against T. b. r. (in words)” value was “good in vivo activity”; the “cure rate compared with pentamidine and furamidine (in words)” value is “better cure rates than pentamidine and furamidine”. Moreover, the Cures result in data set [1] (ip, 10 mg/kg, acetate salt, 10 mg/kg) was “three mice out of four and 3/4”. Further, the Δ Tm with polyA.polyT stood at 7.1 °C. In addition, the IC50 in the data set on L-6 rat mycoblast cells is 26900 nM.
Regarding `N/C(=N\O)c1ccc(-c2ccc(-c3ccc(-c4ccc(/C(N)=N\O)cc4)o3)o2)cc1` [Compound 16, 5,5′-bis-(4-N-Hydroxybenzamidine)-2,2′-bifuran], the Survival in data set [1] (po, 100 mg/kg) amounted to 5.5 days. The Cures in data set [1] (po, 100 mg/kg) is 0/4. Besides, the “in vitro activity (in words)” value in data set [2] is “poor in vitro activity”. Also, the IC50 with Plasmodium falciparum (Plasmodium falciparum) was 2960 nM; in data set [3] (setting [4]) it was 8700 nM; in the data set on L-6 rat mycoblast cells, greater than 182000 nM.
With `Cl.N=C(N)c1ccc(-c2ccc(-c3ccc(-c4ccc(C(=N)N)cc4)o3)o2)cc1` [Compound 17, 5,5′-bis-(4-Amidinophenyl)-2,2′-bifuran hydrochloride salt], in data set [1] (ip, 10 mg/kg), the Survival was 24 days. Besides, the Cures in data set [1] (ip, 10 mg/kg) was 0/4. For the same molecule, the IC50 is 1000 nM in the data set on Leishmania donovani; no more than 22 nM with Plasmodium falciparum (Plasmodium falciparum); 20 nM in the data set with Plasmodium falciparum (hydrochloride salt); 126 nM in data set [3] (setting [4]); 10700 nM in the data set with L-6 rat mycoblast cells. The Δ Tm in the data set on polyA.polyT came out at 23.6 °C.
For the molecule `CONC(=N)c1ccc(-c2ccc(-c3ccc(-c4ccc(C(=N)NOC)cc4)o3)o2)cc1` [Compound 19, 5,5′-Bis-[4-(N-methoxyamidino)phenyl]-2,2′-bifuran], the “in vitro activity (in words)” value in data set [2] is given as “poor in vitro activity”. For the same molecule, the IC50 with Plasmodium falciparum (Plasmodium falciparum) was greater than 7400 nM; in data set [3] (setting [4]), 36000 nM; in the data set on L-6 rat mycoblast cells, greater than 133000 nM.
In the case of `N=C(N)c1ccc(-c2ccc(-c3ccc(-c4ccc(C(=N)N)cn4)o3)o2)nc1` [Compound 22, 5,5′-Bis-(5-amidino-2-pyridyl)-2,2′-bifuran], the IC50 in the data set with Leishmania donovani is greater than 100000 nM; with Plasmodium falciparum (Plasmodium falciparum), 29 nM; in data set [3] (setting [4]), 70 nM; in the data set with L-6 rat mycoblast cells, 5100 nM.
`N=C(N)c1ccc(-c2ccc(-c3ccc(-c4ccc(C(=N)N)cc4)s3)s2)cc1` [Compound 26a, 5,5′-Bis-(4-amidinophenyl)-2,2′-bithiophene]: the melting point was greater than 300 °C. Further, in the data set with Plasmodium falciparum, the IC50 worked out at 22 nM. The molecule further had an IC50 in the data set with Plasmodium falciparum (Plasmodium falciparum) of no more than 22 nM. Besides, the IC50 in data set [3] amounted to 15 nM. Besides, in data set [3] (setting [4]), the IC50 is no more than 26 nM. For the same molecule, the IC50 with L-6 rat mycoblast cells turned out to be 89400 nM.
Molecule `N=C(N)c1ccnc(-c2ccc(-c3ccc(-c4cc(C(=N)N)ccn4)s3)s2)c1` [Compound 26b, 5,5′-Bis-(4-amidino-2-pyridyl)-2,2′-bithiophene] yielded a melting point greater than 300 °C. Besides, the IC50 in the data set with Leishmania donovani is greater than 50000 nM. This molecule also registered an IC50 in the data set with Plasmodium falciparum (Plasmodium falciparum) of 34 nM. The molecule also displayed an IC50 in data set [3] (setting [4]) of 36 nM. In the data set on L-6 rat mycoblast cells, the IC50 was greater than 159000 nM.
Take `N=C(N)c1ccc(-c2ccc(-c3ccc(-c4ccc(C(=N)N)cc4)[se]3)[se]2)cc1` [Compound 29a, 5,5′-Bis-(4-amidinophenyl)-2,2′-biselenophene]: the melting point was greater than 300 °C. In the data set on Plasmodium falciparum, this molecule displayed an IC50 of 14 nM. Also, the IC50 in the data set on Plasmodium falciparum (Plasmodium falciparum) was no more than 22 nM. The same molecule registered an IC50 in data set [3] of 26 nM. In data set [3] (setting [4]), this molecule registered an IC50 of no more than 26 nM. Further, in the data set with L-6 rat mycoblast cells, the IC50 was 13400 nM.
For the molecule `N=C(N)c1ccnc(-c2ccc(-c3ccc(-c4cc(C(=N)N)ccn4)[se]3)[se]2)c1` [Compound 29b, 5,5′-Bis-(4-amidino-2-pyridyl)-2,2′-biselenophene], the melting point is greater than 300 °C. Besides, the IC50 in the data set on Leishmania donovani is 19800 nM. Besides, in the data set with Plasmodium falciparum (Plasmodium falciparum), the IC50 was found to be 76 nM. The IC50 in data set [3] (setting [4]) was 153 nM. Also, the IC50 in the data set on L-6 rat mycoblast cells is greater than 144000 nM.
On to `N=C(N)c1ccc2nc(-c3ccc(-c4ccc(C(=N)N)o4)o3)[nH]c2c1` [Compound 45], for which the Δ Tm in the data set on polyA.polyT turned out to be 23.2 °C. The IC50 in the data set with L-6 rat mycoblast cells stood at 41800 nM.
Turning to `N=C(N)c1ccc(OCCCCCOc2ccc(C(=N)N)cc2)cc1` [Pentamidine, reference compound], in data set [1] (ip, 20 mg/kg), the Survival is greater than 42.75 days and the Cures was 0/4. The IC50 with Leishmania donovani amounted to 2000 nM.
